pIC50: −log10 of the molar value.
What was measured:
[1] = tested on: Hepatoma cell line PLC-PRF5; assay: CellTiter-Blue cell proliferation and viability assay, PLC-PRF5; assay type: cell-based; settings: Homo sapiens, PLC-PRF-5; PLC-PRF5, 1% FCS, 72 hours; read-out: IC50 of agent as single agent
Method: (§1) During proliferation assays, all cells were grown in medium containing 1% FCS. […] Treatment was started by the addition of 50 μl of a 2× concentrated drug solution to a final volume of 100 μl. […] After incubating for 72 hours at 37° C., 10 μl of a 1⁄2 dilution of CellTiter-Blue reagent was added to each well and the plates were returned to the incubator for an additional 4 hours. The fluorescence intensity from the CellTiter-Blue reagent is proportional to the number of viable cells and data were recorded (544Ex/590Em) using a POLARstar OMEGA microplate reader (BMG Labteck Sarl). A background control without cells was used as a blank. The positive control of the assay corresponds to the cell proliferation obtained in the absence of drug treatment (100% proliferation). Each sample was done in duplicate, the […] values were transferred to an excel file, the average and standard deviation of the duplicates were calculated and expressed as a percentage of the proliferation obtained in absence of treatment. The results presented are representative of a minimum of 3 experiments.

[2] = clinically achievable concentration; read-out: Approximate Cmax measured in plasma; cited from earlier work
Hepatoma cell line HepG2 = assay: CellTiter-Blue cell proliferation and viability assay, HepG2; assay type: cell-based; settings: Homo sapiens; HepG2, 1% FCS, 72 hours; read-out: IC50 of agent as single agent
Method: as §1

[3] = tested on: advanced Hepatocellular carcinoma (BCLC stage C); settings: BCLC C patients, first line sorafenib; cited from earlier work

| pIC50 [1] | pIC50 (Hepatoma cell line HepG2) | Compound | Cmax [2] [µM] | median OS [3] [months] |
| --- | --- | --- | --- | --- |
| 4.00 | 4.00 | CCc1c2c(nc3ccc(OC(=O)N4CCC(N5CCCCC5)CC4)cc13)-c1cc3c(c(=O)n1C2)COC(=O)[C@]3(O)CC [CPT-11] | 1 to 10 |  |
| 4.30 | < 4.00 | COc1cc([C@@H]2c3cc4c(cc3[C@@H](O[C@@H]3O[C@@H]5CO[C@@H](C)O[C@H]5[C@H](O)[C@H]3O)[C@H]3COC(=O)[C@H]23)OCO4)cc(OC)c1O [VP-16] | ~34 |  |

The next lines start with the molecule.

| Compound | pIC50 [1] | pIC50 (Hepatoma cell line HepG2) | Cmax [2] [µM] | median OS [3] [months] |
| --- | --- | --- | --- | --- |
| COc1cccc2c1C(=O)c1c(O)c3c(c(O)c1C2=O)C[C@@](O)(C(=O)CO)C[C@@H]3O[C@H]1C[C@H](N)[C@H](O)[C@H](C)O1 [DOX] |  | 5.30 |  |  |
| Nc1ccn([C@@H]2O[C@H](CO)[C@@H](O)C2(F)F)c(=O)n1 [GCB, 2′,2′,-dofluoro-2′,-deoxycytidine] |  | < 4.00 |  |  |
| CC[C@]1(O)C[C@H]2CN(CCc3c([nH]c4ccccc34)[C@@](C(=O)OC)(c3cc4c(cc3OC)N(C=O)[C@H]3[C@@](O)(C(=O)OC)[C@H](OC(C)=O)[C@]5(CC)C=CCN6CC[C@]43[C@@H]65)C2)C1 [VINC] | 6.00 to 7.00 | 6.00 to 7.00 |  |  |
| Cc1ccc(NC(=O)c2ccc(CN3CCN(C)CC3)cc2)cc1Nc1nc(-c2cccnc2)cs1 [masitinib mesilate] | < 5.30 | < 5.30 |  |  |
| CNC(=O)c1cc(Oc2ccc(NC(=O)Nc3ccc(Cl)c(C(F)(F)F)c3)cc2)ccn1 [sorafenib] |  |  |  | 9.5 |
